Consider three molecules from publication PMC9531438, “Preclinical development of carrier-free prodrug nanoparticles for enhanced antitumor therapeutic potential with less toxicity” (Journal of Nanobiotechnology, 2022).

Like-named read-outs stand apart in the source and are kept apart here. Where a SMILES comes first, the peptide text is derived from it. The star is where a group is joined. Doxorubicin(3'-N) = COc1cccc2c1C(=O)c1c(O)c3c(c(O)c1C2=O)C[C@@](O)(C(=O)CO)C[C@@H]3O[C@H]1C[C@H](N*)[C@H](O)[C@H](C)O1

The format of data set [1] is in vitro ADME, mouse. The source says: The carrier-free doxorubicin (DOX) prodrug nanoparticles were designed as an alternative formulation to overcome several problems of conventional nano-sized drug delivery system in the terms of technical- and industrial-aspects. […] This absolutely simplified one-step synthesis protocol allowed 100 g batch of preparation as described in “Methods” section. […] In addition, their precise and concise structure allow easy quality control (QC) after synthesis; thus, we could verify the successful preparation of FRRG-DOX by confirming chemical structure, exact mass and purity via ^1H NMR, MALDI-TOF (calculated mass: 1102.17 Da, measured mass: 1102.595 m/z) and HPLC (99%), respectively (Additional file 1: Fig. S2). Importantly, FRRG-DOX molecules self-assembled into prodrug nanoparticles by its intermolecular π-π stacking hydrophobic interactions without any additional carrier materials, resulting in high drug loading (> 50%). […] This was clearly supported by MALDI-TOF measurement, wherein the molecular weights of G-DOX (calculated mass: 600.58 Da, measured mass: 656.4 m/z [M + Li] and 657.4 m/z [M + Li + H]) were confirmed at the newly appeared peak (13 min) in the HPLC spectrum after incubation of F68-FDOX with cathepsin B (Additional file 1: Fig. S6). […]

The format of data set [2] is physicochemical. The protocol:
Finally, we developed F68-FDOX as a lyophilized powder form and evaluated the long-term storage stability of lyophilized F68-FDOX powder stored for 3, 6, 12 months in the low (− 4 °C), room (37 °C) or accelerated (60 °C) condition; for these studies, size distribution, chemical structure and purity were analyzed after reconstitution of lyophilized powder stored at each condition (Additional file 1: Fig. S7–S9). […] Taken together, the manufacturing operation for mass production of F68-FDOX was optimized for preclinical development, and their physicochemical characterization, such as size distribution, particle stability, target enzyme-specificity, and even the long-term storage stability was successfully evaluated in vitro.
To prepare carrier-free prodrug nanoparticles, the cancer-specific prodrug was simply synthesized by conjugating cathepsin B-specific cleavable tetrapeptide (Phe-Arg-Arg-Gly; FRRG) to DOX via one-step reaction. […] The FRRG-DOX was purified using Sep-Pak C18 column chromatography and the resulting filtrate was analyzed via RP-HPLC (Agilent 1200 Series HPLC System). […] The long-term storage stability of FRRG-DOX power was assessed after storage of 3, 6, 12 months in the low (− 4 °C), room (37 °C) or accelerated (60 °C) condition, followed by analysis of size, chemical structure and purity as described above. […]

Data set [3] can be described thus: Pharmacokinetics after intravenous injection. It is filed as in vivo, mice. The protocol:
(§1) The 6-week male BALB/c and BALB/c nu/nu mice were purchased from NaraBio (Gyeonggi-do, Republic of Korea). Mice were bred under pathogen-free conditions in the Korea Institute of Science and Technology (KIST). All experiments with animals were performed in compliance with the relevant laws and institutional guidelines of Institutional Animal Care and Use Committee (IACUC; approved number of 2020-123) in Korea Institute of Science and Technology (KIST). […] After treatment, blood samples were collected from mice by cardiac puncture after deep anesthesia at pre-determined times, followed by analysis with HPLC with fluorescence detector. The PK parameters including area under the curves (AUC), clearance (CL), volume of distribution (Vd) and half-life (t1/2) were calculated using a WinNonlin software. […] The fluorescence intensities in the tumor regions were quantified using a Living Image software (PerkinElmer, Waltham, MA, USA). The ex vivo NIRF imaging of collected major organs after 9 h of injection was also performed using IVIS Lumina Series III system. […] For this analysis, each tissue was cut into 8-μm sections using rotary microtome and analyzed via confocal laser scanning microscope (CLSM) equipped with 405 diode (405 nm) and HeNe-Red (633 nm) lasers.

The test system of data set [4] is HT29 tumor-bearing mice. The following applies: mouse, in vivo, iv, 4 mg/kg. The protocol: as §1
Data set [5] relates to BALB/c mice. The experiment in a line: Toxicity study after multi-dosage. It is filed as in vivo.
Protocol: (§4) The safety of F68-FDOX treatment was assessed by histological and hematological analyses. Briefly, DOX (4 mg/kg), FRRG-DOX (4 mg/kg based on DOX contents) or F68-FDOX (4 mg/kg based on DOX contents) were intravenously injected into BALB/c mice. On day 9 after treatments, major organs were collected from mice, and structural abnormalities and apoptosis in organ tissues were assessed by staining with H&E or TUNEL, respectively. In case of hematological analyses, blood samples were collected from mice on day 9. For the complete blood count (CBC) analyses, each blood sample was mixed with EDTA, and a portion of blood sample was centrifuged at 2100 rpm for 20 min to obtain blood plasma. The following factors in blood samples were measured; albumin/globulin ratio (A/G), troponin-I, albumin (Alb), total protein (TP), alanine aminotransferase (ALT), total cholesterol (T-Chol), blood urea nitrogen (BUN), alkaline phosphatase (ALP), red blood cell (RBC), white blood cell (WBC), mean corpuscular hemoglobin (MCH), mean corpuscular volume (MCV), hematocrit (HCT), hemoglobin (HGB) and platelet (PLT). To assess the safety of F68-FDOX treatment after multiple-dosage, DOX (4 mg/kg), FRRG-DOX (4 mg/kg based on DOX contents) or F68-FDOX (4 mg/kg based on DOX contents) were injected into mice once every three days. Then, histological and hematological analyses were performed as described above.
Data set [6] concerns BALB/c mice. The following applies: mouse, in vivo, iv, 10 mg/kg.
Protocol: as §4
Data set [7] relates to BALB/c mice. The experiment in a line: Toxicity study after single-dosage.
Protocol: as §4
For a further data set, the system named is KPC960 cells. The experiment in a line: CCK-8 cytotoxicity. It is filed as cell-based, human. The following applies: 48 h treatment. As to the method: (§2) The cytotoxicity of F68-FDOX was assessed via a cell counting kit-8 (CCK-8) assays. First, 1 × 10^5 HT29, MDA-MB231, KPC960 or H9C2 cells were seeded into 96-well cell culture plates. […] Finally, cell viability was measured by a microplate reader (VERSAmaxTM; Molecular Devices Corp., USA) with 450 nm of wavelength.

A further data set has as its system H9C2 cells. The experiment in a line: CCK-8 cytotoxicity. It is filed as cell-based, rat. The following applies: 48 h treatment, normal cardiomyocytes. As to the method:
as §2

In data set [8] the test system is HT29 tumor-bearing mice. The experiment in a line: Pharmacodynamics, histological analysis of organs and tumor tissues (CLSM). The following applies: i.v. 4 mg/kg based on DOX, 9 h after injection. It is filed as in vivo. As to the method:
as §1

In another data set the test system is HT29 tumor. The experiment in a line: Antitumor activity, colon tumor model. It is filed as in vivo. As to the method: (§3) The antitumor activity was evaluated in colon, breast and pancreatic cancer models, which were prepared by subcutaneous injection with 1 × 10^7 HT29, MDA-MB231 or KPC960 cells, respectively. […] The mice were treated once every three days, and tumor volumes were calculated as the largest diameter × smallest diameter^2 × 0.53, every 2 days. The mice with a tumor size of 2000 mm^3 or higher were counted as dead. To analyze the antitumor activity in a single cell level, the tumor tissues were collected on day 9, and single cell were isolated from the tumor tissues using a Tumor Dissociation Kit. After cell counting, single cells were stained with Annexin V for 1 h in room temperature and analyzed via flow cytometer.

The subject of data set [9] is colon (HT29) tumor tissues. The experiment in a line: Annexin V staining of single tumor cells (flow cytometry). It is filed as in vivo, mice. The following applies: day 9 after treatment, mean. The protocol:
as §3

Another data set has as its system mice. The following applies: 5 mg/kg free DOX two times (Total 10 mg/kg); ref [42]; cited from earlier work. As to the method:
[…] […] Even though same dose of equal drugs was administered into the mice, the outcomes can be varied according to the not only the number and intervals of the administration, but also different reactivity by species, feeding environment and age of the ...

Where [10] appears, read: BALB/c mice, i.v. 10 mg/kg based on DOX, single dose.
Setting [11] is: mice, i.v., 4 mg/kg based on DOX contents, WinNonlin.
Where [12] appears, read: treatment five times with 3 days-intervals.

As a reminder, the Vd is the apparent volume that relates the amount in the body to the concentration in plasma or blood. The low end stands for confinement near the circulation, the high end for extensive tissue distribution. Phe-Arg-Arg-Gly [F68-FDOX]: the “time of high stability without significant changes of size and polydispersity index in mouse serum” value in data set [1] is on record as at least 6 days. In addition, the “stability 24 h after reconstitution (size distribution, chemical structure, purity)” value in data set [2] was “no significant changes”. In data set [3] (mouse, in vivo, iv, 4 mg/kg), this molecule gave an AUCinf of 1367.44 ± 14.35 µg·h/mL, an AUClast of 1281.17 ± 240 µg·h/mL, a CL of 0.0488 ± 0.0005 mL/min/kg and a Vd of 0.1 ± 0.00269 L/kg. The “time for which a detectable amount remained in the body” value in data set [3] (mouse, in vivo, iv, 4 mg/kg) is 96 h. Moreover, in the data set with HT29 tumor-bearing mice [4], the “fluorescence intensity in tumor tissues relative to FRRG-DOX (NIRF)” value is 2.42–2.71 fold. The “histology of liver, spleen and heart tissues, multi-dosage” value in the data set with BALB/c mice [5] (mouse, in vivo) is “without damage to the normal organs”. In the data set with BALB/c mice [6], the “all hematological parameters, single-dosage” value is on record as “in normal range”; the “body weight change, single-dosage” value is on record as “no significant body weight loss”; the “major organ tissues stained with H&E or TUNEL, single-dosage” value is reported as “did not induce noticeable tissue damages”.
In data set [3] (mouse, in vivo, iv, 4 mg/kg), `COc1cccc2c1C(=O)c1c(O)c3c(c(O)c1C2=O)C[C@@](O)(C(=O)CO)C[C@@H]3O[C@H]1C[C@H](NC(=O)CNC(=O)[C@H](CCCNC(=N)N)NC(=O)[C@H](CCCNC(=N)N)NC(=O)[C@H](Cc2ccccc2)NC(C)=O)[C@H](O)[C@H](C)O1` [FRRG-DOX] (Ac-FRRG-{Doxorubicin(3'-N)}) yielded an AUCinf of 407.71 ± 85.81 µg·h/mL, an AUClast of 345.99 ± 68.9 µg·h/mL, a CL of 0.1692 ± 0.0405 mL/min/kg and a Vd of 0.0832 ± 0.03185 L/kg. In data set [3] (mouse, in vivo, iv, 4 mg/kg), the “half-life (t1/2)” value came out at 7.96 ± 4.59 h. Moreover, the “body weight change, single-dosage” value in the data set on BALB/c mice [7] (setting [10]) was “no significant body weight loss”.
By IC50 is commonly meant the concentration that inhibits the measured activity by half. The low end stands for greater potency in that assay, the high end for weaker potency in that assay. On to `COc1cccc2c1C(=O)c1c(O)c3c(c(O)c1C2=O)C[C@@](O)(C(=O)CO)C[C@@H]3O[C@H]1C[C@H](N)[C@H](O)[C@H](C)O1` [DOX, doxorubicin], for which half-maximal inhibition in the data set on KPC960 cells (IC50) was put at 7.32 µM. For the same molecule, the IC50 in the data set with H9C2 cells came to 13.8 µM. In data set [3] (setting [11]), the CL was 3.02 ± 0.638 mL/min/kg, the Vd came to 0.304 ± 0.0976 L/kg and the “half-life (t1/2)” value worked out at 1.33 ± 0.23 h. In data set [3] (mice, i.v., 4 mg/kg based on DOX contents, blood, HPLC with fluorescence detector, WinNonlin), this molecule gave an AUClast of 22.18 ± 4.52 µg·h/mL. The “distribution in major organs and tumor tissues (histology)” value in the data set on HT29 tumor-bearing mice [8] was “non-specifically distributed in all the major organs and low tumor accumulation”. Also, in the data set with HT29 tumor (HT29 s.c. tumor, i.v. 4 mg/kg based on DOX once every three days), the “colon tumor volume on day 9 after treatment” value is given as 478.75 ± 49.87 mm^3. Moreover, the “time within which all mice were dead (tumor model)” value with HT29 tumor (HT29 tumor-bearing mice, i.v. 4 mg/kg once every three days) is listed as at most 9 days. Moreover, in data set [9], the “percentage of apoptotic (Annexin V-positive) tumor cells” value is reported as 17.7 ± 1.51%. Besides, in the data set on BALB/c mice [5] (day 7, H&E), the “histology of liver, spleen and heart tissues, multi-dosage” value is “severe tissue damages”. Further, in the data set on BALB/c mice [5] (day 7, treatment with 3 days-intervals), the “hematological parameters, multi-dosage” value is recorded as “remarkably got out from the normal range”. In the data set on BALB/c mice [5] (setting [12]), the “body weight change, multi-dosage” value was “severe body weight loss” and the “time within which all mice were dead, multi-dosage” value is given as at most 7 days. Also, in the data set on mice, the “time within which all mice were dead” value is on record as “within two weeks”. For the same molecule, in the data set with BALB/c mice [7] (setting [10]), the “body weight change, single-dosage” value is reported as “gradually reduced” and the “time within which all mice were dead, single-dosage” value is at most 9 days. Moreover, in the data set on BALB/c mice [7] (day 9, i.v. 10 mg/kg), the “complete blood count (CBC) analyses, single-dosage” value was “severe leukopenia, oligocythemia and thrombocytopenia”; the “serological examination (BUN, ALT, troponin-I), single-dosage” value is “severe cardiac, renal and hepatic toxicity”. Besides, the “major organ tissues stained with H&E or TUNEL, single-dosage” value in the data set on BALB/c mice [7] (day 9, i.v. 10 mg/kg based on DOX) is “elevated structural abnormalities with apoptosis”.
